From article PMC8791477, “Evaluation of SARS-CoV-2 entry, inflammation and new therapeutics in human lung tissue cells” (PLoS Pathogens, 2022)
Counter-ions that a name gives are not always drawn.

How the values were obtained:
[1] = system: IL-6 and CXCL10 expression; assay: Immunomodulatory capacity: IL-6 and CXCL10 in LPS + IFN-γ stimulated HLT myeloid cells; assay type: cell-based, human; conditions: 20μM, LPS 50 ng/ml + IFN-γ 100 ng/ml, 20h
Method: HLT cells were cultured in a round-bottom 96-well plate containing 20 μM of cepharanthine, ergoloid, ciclesonide, hydroxychloroquine, ivermectin, or camostat mesylate alone or in combination with the stimuli LPS (50 ng/ml) and IFN-γ (100 ng/ml). For each patient, a negative control, cells treated with only medium, and a positive control, cells incubated in the presence of LPS and IFN-γ, were included. Immediately, brefeldin A (BD Biosciences) and monensin (BD Biosciences) were added to cells and cultured overnight at 37°C in 5% CO2. Next day, cellular suspensions were stained with the following antibodies: anti-CD11b (FITC, BioLegend), anti-CD69 (PE-CF594, BD Biosciences), anti-CD14 (APC-H7, BD Biosciences), anti-EpCAM (APC, BioLegend), anti-CD3 (BV650, BD Biosciences), anti-CD45 (BV605, BioLegend), and anti-HLA-DR (BV421, BioLegend). Cells were subsequently fixed and permeabilized using the Cytofix/Cytoperm kit (BD Biosciences) and intracellularly stained with anti-IL-6 (PE-Cy7, BioLegend), and anti-CXCL10 (PE, BioLegend). Cell viability was determined using an AQUA viability dye for flow cytometry (LIVE/DEAD fixable AQUA, Invitrogen). After fixation with PBS 2% PFA, cells were acquired in an LSR Fortessa (BD Biosciences), and data were analyzed using the FlowJo v10.6.1 software (TreeStar).

SARS-CoV-2 = conditions: cited from earlier work
COVID-19 patients = conditions: cited from earlier work
in vitro [2] = conditions: African green monkey
in vitro [3] = conditions: human, CC50 HLT
VeroE6 cells = conditions: for CC50: read-out: CC50 Vero E6, absence of virus
HLT cells = conditions: for CC50: read-out: CC50 HLT, absence of virus
ACE2 expression = assay: Modulation of ACE2 expression in enriched AT-II cells of HLT (flow cytometry); assay type: cell-based, human; conditions: 20h; for ACE2 expression after anti-inflammatory drugs (in words): 100μM to 0.8μM; for ACE2 expression in enriched AT-II cells after immune stimuli (in words): IL-1β 10 ng/ml, IL-10 and GM-CSF 100 ng/ml, IFN 100 U/ml
Method: VeroE6 and lung cells were incubated with five-fold serial dilutions of selected anti-inflammatory compounds (ranging from 100μM to 0.8μM) for 20h. […] For determination of ACE2 expression, the following surface staining antibodies were used: primary goat anti-ACE2 (R&D Systems), anti-CD45 (AF700, BioLegend), anti-EpCAM (APC, BioLegend), and anti-HLA-DR (BV421, BioLegend). For ACE2 detection, cells were then stained with secondary donkey anti-goat IgG (PE, R&D Systems) for 30 min at 4°C. A Fluorescent Minus One control (FMO) without primary anti-ACE2 antibody was used as a control. Cell viability was determined using an AQUA viability dye for flow cytometry (LIVE/DEAD fixable AQUA, Invitrogen). After fixation with PBS 2% PFA, cells were acquired in an LSR Fortessa (BD Biosciences) and analyzed using the FlowJo v10.6.1 software (TreeStar).

[4] = system: SARS-CoV-2 clinical isolate; assay type: cell-based
thrombin = conditions: cited from earlier work
[5] = 10µM, ref Hempel et al., Chemical Science 2021

| Molecule | CC50 (in vitro [2]; CC50 Vero E6, absence of virus) | CC50 (in vitro [3]; absence of virus) | other results |
| --- | --- | --- | --- |
| CN(C)C(=O)COC(=O)Cc1ccc(OC(=O)c2ccc(NC(=N)N)cc2)cc1 [Camostat, Camostat mesylate] | – | – | expression of CXCL10 in CD11b+CD14- myeloid cells (in words) [1]: significantly reduced; expression of IL-6 in CD11b+CD14+ myeloid cells (in words) [1]: significantly reduced; activity in precision-cut lung slices (in words) (SARS-CoV-2; 0.5µM, ref Hoffmann et al, EBiomedicine 2021): non-active; inhibition, donor 1 (SARS-CoV-2; [5]): 40%; inhibition, donor 2 (SARS-CoV-2; [5]): 60%; inhibition in precision-cut lung slices (SARS-CoV-2; 10µM, ref Hoffmann et al, EBiomedicine 2021): approx. 40%; clinical benefit (in words) (COVID-19 patients; COVID-19 patients receiving camostat within the first 48h of admission): no significant benefit; CC50 (in vitro [2]; CC50 Vero E6): > 100 µM; CC50 (in vitro [3]): > 100 µM |
| Cc1ccc(-c2cc(C(F)(F)F)nn2-c2ccc(S(N)(=O)=O)cc2)cc1 [Celecoxib] | 13 µM | ~100 µM | – |
| COc1ccc2cc1Oc1ccc(cc1)C[C@H]1c3c(cc4c(c3Oc3cc5c(cc3OC)CCN(C)[C@@H]5C2)OCO4)CCN1C [Cepharanthine] | 22.3 µM | 13.8 µM | expression of IL-6 in CD11b+CD14+ myeloid cells (in words) [1]: reduced IL-6 production; CC50 (VeroE6 cells): 22.4 µM; CC50 (HLT cells): 16.1 µM |
| CC(C)C(=O)OCC(=O)[C@@]12O[C@H](C3CCCCC3)O[C@@H]1C[C@H]1[C@@H]3CCC4=CC(=O)C=C[C@]4(C)[C@H]3[C@@H](O)C[C@@]12C [Ciclesonide] | > 100 µM | > 100 µM | expression of CXCL10 in CD11b+CD14- myeloid cells (in words) [1]: induced CXCL10 secretion |
| C[C@]12CCC(=O)C=C1CC[C@@H]1[C@@H]2[C@@H](O)C[C@@]2(C)[C@H]1CC[C@]2(O)C(=O)CO [Cortisol] | > 100 µM | > 100 µM | ACE2 expression after anti-inflammatory drugs (in words) (ACE2 expression): no effect on ACE2 expression |
| C[C@@H]1C[C@H]2[C@@H]3CCC4=CC(=O)C=C[C@]4(C)[C@@]3(F)[C@@H](O)C[C@]2(C)[C@@]1(O)C(=O)CO [Dexamethasone] | > 100 µM | > 100 µM | 28-day mortality (in words) (COVID-19 patients; patients receiving invasive mechanical ventilation): decreased |
| O=C1C[C@@H](c2ccc(O)c(O)c2)Oc2cc(O)cc(O)c21 [Eriodictyol] | > 100 µM | > 100 µM | – |
| CC1(C)[C@@H](O[C@H]2O[C@H](C(=O)O)[C@@H](O)[C@H](O)[C@H]2O[C@@H]2O[C@H](C(=O)O)[C@@H](O)[C@H](O)[C@H]2O)CC[C@]2(C)[C@H]3C(=O)C=C4[C@@H]5C[C@@](C)(C(=O)O)CC[C@]5(C)CC[C@@]4(C)[C@]3(C)CC[C@@H]12 [Glycyrrhizin] | > 100 µM | > 100 µM | – |
| Oc1ccc(CC2NCCc3cc(O)c(O)cc32)cc1 (stereo not drawn) [Higenamine, Higenamine hydrochloride] | > 100 µM | > 100 µM | – |
| CCN(CCO)CCCC(C)Nc1ccnc2cc(Cl)ccc12 (stereo not drawn) [Hydroxychloroquine] | > 100 µM | > 100 µM | viral replication of replication-competent SARS-CoV-2 in HLT cells (in words) [4]: effective; cytotoxicity in VeroE6 (in words) (VeroE6 cells; up to 100μM): no apparent cytotoxicity; cytotoxicity in HLT (in words) (HLT cells; up to 100μM): no apparent cytotoxicity; effectiveness as a treatment for COVID-19 (in words) (COVID-19 patients; clinical trials): failed to show effectiveness |
| Cc1cc(O)c2c(=O)c3c(O)cc(O)c4c5c(O)cc(O)c6c(=O)c7c(O)cc(C)c8c1c2c(c34)c(c78)c65 [Hypericin] | 4.8 µM | 0.14 µM | – |
| CC(C)Cc1ccc(C(C)C(=O)O)cc1 (stereo not drawn) [Ibuprofen] | > 100 µM | > 100 µM | ACE2 expression after anti-inflammatory drugs (in words) (ACE2 expression): no effect on ACE2 expression |
| O=C1Nc2ccccc2/C1=C1/Nc2ccccc2C1=O [Indirubin] | – | – | CC50 (in vitro [2]; CC50 Vero E6): > 100 µM; CC50 (in vitro [3]): > 100 µM |
| CCCCCCCCCCCC(=O)O [Lauric acid] | – | – | CC50 (VeroE6 cells): > 100 µM; CC50 (HLT cells): > 100 µM |
| CC1(C)Cc2c(-c3ccccc3)c(-c3ccc(Cl)cc3)c(CC(=O)O)n2C1 [Licofelone] | > 100 µM | ~53.6 µM | – |
| O=c1cc(-c2ccc(O)c(O)c2)oc2cc(O)cc(O)c12 [Luteolin] | > 100 µM | > 100 µM | – |
| CN(C)C(=N)N=C(N)N [Metformin] | > 100 µM | > 100 µM | – |
| CCCCCCCCCC(=O)OCC(O)CO (stereo not drawn) [Monocaprin] | – | – | CC50 (VeroE6 cells): > 100 µM; CC50 (HLT cells): > 100 µM |
| CCCCCCCCCCCC(=O)OCC(O)CO (stereo not drawn) [Monolaurin] | – | – | CC50 (VeroE6 cells): > 100 µM; CC50 (HLT cells): > 100 µM |
| O=c1c(O)c(-c2cc(O)c(O)c(O)c2)oc2cc(O)cc(O)c12 [Myricetin] | > 100 µM | > 100 µM | IC50 (thrombin): 56 µM |

| Molecule | CC50 (in vitro [2]; CC50 Vero E6, absence of virus) | CC50 (in vitro [3]; absence of virus) | other results |
| --- | --- | --- | --- |
| O=C1CN(/N=C/c2ccc([N+](=O)[O-])o2)C(=O)N1 [Nitrofurantoin] | – | – | CC50 (in vitro [2]; CC50 Vero E6): > 100 µM; CC50 (in vitro [3]): > 100 µM |
| Cc1cccn2c(=O)c(-c3nnn[nH]3)cnc12 [Pemirolast, Pemirolast potassium] | > 100 µM | > 100 µM | – |
| [H]/N=C(/N)N/C(=N/[H])NCCc1ccccc1 [Phenformin] | > 100 µM | > 100 µM | – |
| C[C@]12C=CC(=O)C=C1CC[C@@H]1[C@@H]2C(=O)C[C@@]2(C)[C@H]1CC[C@]2(O)C(=O)CO [Prednisone] | > 100 µM | > 100 µM | ACE2 expression after anti-inflammatory drugs (in words) (ACE2 expression): no effect on ACE2 expression |
| NC(=O)[C@@H]1CCCN1C(=O)[C@H](Cc1c[nH]cn1)NC(=O)[C@@H]1CCC(=O)N1 [Protilerin] | – | – | CC50 (VeroE6 cells): > 100 µM; CC50 (HLT cells): > 100 µM |
| O=c1c(O)c(-c2ccc(O)c(O)c2)oc2cc(O)cc(O)c12 [Quercetin] | > 100 µM | > 100 µM | – |
| CCCCCCCCCCCCOS(=O)(=O)[O-].[Na+] [SLS, Sodium lauryl sulfate] | – | – | CC50 (VeroE6 cells): 87 µM; CC50 (HLT cells): ~83.2 µM |
| N[C@@H](CC(=O)N1CCn2c(nnc2C(F)(F)F)C1)Cc1cc(F)c(F)cc1F [Sitagliptin] | > 100 µM | > 100 µM | – |
| Cc1ccnc(NS(=O)(=O)c2ccc(N)cc2)n1 [Sulfamerazine] | > 100 µM | > 100 µM | – |
| CC1=C(CC(=O)O)c2cc(F)ccc2/C1=C\c1ccc([S+](C)[O-])cc1 (stereo not drawn) [Sulindac] | > 100 µM | > 100 µM | – |
| C[C@]1(Cn2ccnn2)[C@H](C(=O)O)N2C(=O)C[C@H]2S1(=O)=O [Tazobactam] | > 100 µM | > 100 µM | – |
| C[C@H](O)[C@H](O)[C@H]1CNc2nc(N)[nH]c(=O)c2N1 [Tetrahydrobiopterin, Tetrahydrobiopterin dihydrochloride] | > 100 µM | > 100 µM | – |
| CC(C)[C@H](N)C(=O)OCCOCn1cnc2c(=O)[nH]c(N)nc21 [Valaciclovir] | > 100 µM | > 100 µM | – |
| N#C[C@@H]1CCCN1C(=O)CNC12CC3CC(CC(O)(C3)C1)C2 [Vidagliptin, Vildagliptin] | > 100 µM | > 100 µM | – |
| Ergoloid mesylates | – | – | expression of cytokines in CD11b+CD14+ myeloid cells (in words) [1]: significantly reduced the expression of cytokines; CC50 (VeroE6 cells): 18.7 µM; cell toxicity in HLT cells (HLT cells; 20 μM, 48h): > 60%; CC50 (HLT cells): ~100 µM |
| GM-CSF | – | – | ACE2 expression in enriched AT-II cells after immune stimuli (in words) (ACE2 expression): did not impact ACE2 protein production |
| IL-1β | – | – | ACE2 expression in enriched AT-II cells after immune stimuli (in words) (ACE2 expression): decreased the fraction of AT-II cells expressing ACE2 |
| Ivermectin | – | – | expression of cytokines in the HLT inflammation model (in words) [1]: did not affect the expression of cytokines; CC50 (VeroE6 cells): 20.2 µM; CC50 (HLT cells): ~100 µM; proportion of PCR-positive patients (in words) (COVID-19 patients; seven days after treatment): failed to show a reduction |
| IL-10 (protein, UniProt P22301 19-178, looked up) Interleukin-10: SPGQGTQSENSCTHFPGNLPNMLRDLRDAFSRVKTFFQMKDQLDNLLLKESLLEDFKGYLGCQALSEMIQFYLEEVMPQAENQDPDIKAHVNSLGENLKTLRLRLRRCHRFLPCENKSKAVEQVKNAFNKLQEKGIYKAMSEFDIFINYIEAYMTMKIRN | – | – | ACE2 expression in enriched AT-II cells after immune stimuli (in words) (ACE2 expression): did not impact ACE2 protein production |
